Data on four molecules can be found in patent US6509367B1 (priority 2001, dated 2003).

In experiment [1] the test system is mice. The experiment in a line: Rectal temperature (hypothermia) in mice, compound alone (agonism test). It is filed as in vivo. The procedure:
(§1) Male ICR mice (25-32 g), purchased from Harlan (Dublin, Va.), were housed in groups of five. All animals were kept in a temperature-controlled (20-22° C.) environment with a 12-hour light-dark cycle (lights on at 7 a.m.). Separate mice were used for testing each drug dose in the in vivo behavioral procedures. The mice were maintained on a […] light: dark cycle, and received food and water ad libitum. Brain tissue for binding studies was obtained from male Sprague-Dawley rats (150-200 g) purchased from Harlan Laboratories (Dublin, Va.).
(§2) Measurement of spontaneous activity in mice occurred in standard activity chambers interfaced with a Digiscan Animal Activity Monitor (Omnitech Electronics, Inc., Columbus, Ohio). A standard tail-flick apparatus (described by Dewey et al., 1970) and a digital thermometer (Fisher Scientific, Pittsburgh, Pa.) were used to measure antinociception and rectal temperature, respectively.
(§3) All drugs were administered to the mice intravenously (i.v.) in the tail vein at a volume of 0.1 ml/10 g.
(§4) Maximum latency of 10 sec was used.

In experiment [2] the test system is mice. The experiment in a line: Agonism tests in mice, stated across the triad (spontaneous activity, tail flick, rectal temperature). Particulars: compound alone, i.v. doses up to 30 mg/kg.
In experiment [3] the test system is mice. The experiment is described as follows: Tail-flick antinociception in mice, compound alone (agonism test). It is filed as in vivo. To be noted: for ED50: Mus musculus, iv, read-out: TF: > dose, 50% activity not achieved at this highest dose tested. The procedure: as §1, §2, §3, §4
The test system of experiment [4] is mice. The experiment is described as follows: Spontaneous (locomotor) activity in mice, compound alone (agonism test). It is filed as in vivo. The procedure:
as §1, §2, §3, §4

The target in the next experiment is CB1 receptor (Rattus norvegicus, UniProt P20272). The experiment is described as follows: biochemical. It is filed as binding. Particulars: for Ki: 1 nM [3H] CP 55,940, rat whole brain P2 membranes, 30° C. for 1 hr. The procedure: as §1
All assays, as described briefly below, were performed in triplicate, and the results represent the combined data from three to six individual experiments. Following decapitation and rapid removal of the brain, whole brain was homogenized and centrifuged. The resulting pellet was termed P1. The supernatant was saved and combined with the two subsequent supernatants obtained from washing of the P1 pellet. The combined supernatant fractions were centrifuged, resulting in the P2 pellet. After further incubation and centrifuging, this pellet was resuspended in assay buffer to a protein concentration of approximately 2 mg/ml. The membrane preparation was quickly frozen in a bath solution of dry ice and 2-methylbutane (Sigma Chemical Co., St. Louis, Mo.), then stored at −80° C. for no more than 2 weeks. […] Binding was initiated by the addition of 150 μg of P2 membrane to test tubes containing 1 nM of [3H] […] Following incubation at 30° C. for 1 hr, binding was terminated by addition of ice-cold buffer and vacuum filtration through pretreated filters in a 12-well sampling manifold (Millipore, Bedford, Mass.). After washing, filters were placed into plastic scintillation vials (Packard, Downer Grove, Ill.) and shaken. The quantity of radioactivity present was determined by liquid scintillation spectrometry.

Experiment [5] has as its system mice. The experiment in a line: Spontaneous activity in mice, compound in combination with 3 mg/kg Δ^9-THC (antagonism test). It is filed as in vivo. To be noted: for SA: maximum % antagonism of 3 mg/kg Δ^9-THC: analog 10 min before Δ^9-THC. The procedure:
as §1, §2, §3, §4

In experiment [6] the test system is mice. The experiment in a line: Rectal temperature in mice, compound in combination with 3 mg/kg Δ^9-THC (antagonism test). The experiment is classed as in vivo. The procedure:
as §1, §2, §3, §4

Experiment [7] relates to mice. The experiment in a line: Tail-flick antinociception in mice, compound in combination with 3 mg/kg Δ^9-THC (antagonism test). The experiment is classed as in vivo. The procedure: as §1, §2, §3, §4
Experiment [8] deals with mice. To be noted: from Wiley et al., 1998; cited from earlier work.
Experiment [9] concerns mice. To be noted: from Wiley et al., 1998; cited from earlier work. The source holds these as a separate data set.
Experiment [10] concerns mice. To be noted: from Wiley et al., 1998; cited from earlier work. This is another data set of the same source.

Read-outs that look alike come from different tables or passages of the source. Marks after values point to notes of the source that are not given here.

Chain of CB1 receptor (P20272 whole entry): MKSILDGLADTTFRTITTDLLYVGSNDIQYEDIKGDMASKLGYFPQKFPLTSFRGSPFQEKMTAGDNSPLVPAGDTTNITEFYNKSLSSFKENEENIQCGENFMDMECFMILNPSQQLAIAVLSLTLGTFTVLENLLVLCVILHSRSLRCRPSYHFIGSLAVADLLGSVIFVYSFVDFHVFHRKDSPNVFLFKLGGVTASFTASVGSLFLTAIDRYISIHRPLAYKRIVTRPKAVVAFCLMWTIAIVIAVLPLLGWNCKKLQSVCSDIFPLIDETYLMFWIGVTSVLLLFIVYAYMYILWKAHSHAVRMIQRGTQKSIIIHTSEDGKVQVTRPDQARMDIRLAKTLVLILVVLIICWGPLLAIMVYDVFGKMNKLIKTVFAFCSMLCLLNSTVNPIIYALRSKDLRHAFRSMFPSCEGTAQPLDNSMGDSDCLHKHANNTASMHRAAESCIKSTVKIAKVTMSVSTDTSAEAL

Take `CCCCCCCC(=O)c1nn(-c2ccc(Cl)cc2Cl)c(-c2ccc(Cl)cc2)c1C` [Compound O-1272]: in the experiment with mice [1] (i.v., at 30 mg/kg), the “RT: maximal effect produced by the analog (change in rectal temperature)” value is reported as −3 (30)^# ° C. The “in vivo cannabinoid agonist activity (in words)” value in the experiment on mice [2] is given as “eliminated in vivo cannabimimetic activity”. Moreover, the ED50 with mice [3] is more than 30 mg/kg. Further, in the experiment on mice [4] (Mus musculus, iv, at 3 mg/kg i.v., read-out: Max stim of spontaneous locomotor activity, Compound Alone), the change in vivo at 3 mg/kg stood at 17%. In the experiment with mice [4] (Mus musculus, iv, at 30 mg/kg i.v., read-out: Max % inhibit of spontaneous locomotor activity, Compound Alone), the inhibition in vivo at 30 mg/kg turned out to be 54%. For the same molecule, in the experiment with mice [4] (mice, i.v., at 30 mg/kg), the “SA: maximal effect produced by the analog” value is recorded as 54% (30)^#. The Ki on CB1 receptor (read-out: Ki) came to 221 ± 36 nM.

As to `CCCCCc1ccc(-c2cc(C(=O)NN3CCCCC3)nn2-c2ccc(Cl)cc2Cl)cc1` [Compound O-1710], the ED50 is more than 30 mg/kg in the experiment with mice [1] (Mus musculus, iv, read-out: RT: > dose, 50% activity not achieved at this highest dose tested); more than 30 mg/kg in the experiment with mice [3]; more than 30 mg/kg with mice [4] (Mus musculus, iv, mice, i.v., read-out: SA: > dose, 50% activity not achieved at this highest dose tested). In addition, the change in vivo at 1 mg/kg in the experiment with mice [4] (Mus musculus, iv, at 1 mg/kg i.v., read-out: Max stim of spontaneous locomotor activity, Compound Alone) was found to be 4%. Further, the inhibition in vivo at 10 mg/kg in the experiment with mice [4] (Mus musculus, iv, at 10 mg/kg i.v., read-out: Max % inhibit of spontaneous locomotor activity, Compound Alone) is 42%. In addition, the “SA: maximum % antagonism of 3 mg/kg Δ^9-THC” value in the experiment with mice [5] (at 3 mg/kg i.v.) was 50% (3). In the experiment with mice [5] (at 10 mg/kg i.v.), the “Max % inhibit of spontaneous locomotor activity, Compound with 3 mg/kg Δ^9-THC” value is given as 82% (10). The “Max stim of spontaneous locomotor activity, Compound with 3 mg/kg Δ^9-THC (in words)” value in the experiment on mice [5] (at the dose(s) [mg/kg] given in parentheses in the cell) is “None (0.3, 1, 3, & 10)”. In addition, the “RT: maximum % antagonism of 3 mg/kg Δ^9-THC” value in the experiment with mice [6] (at 1 mg/kg i.v.) was 51% (1). Affinity at CB1 receptor (Ki (nM)) was put at a Ki of 27 ± 0.86 nM. Besides, the “CB1 binding affinity, fold decrease by hydrogen substitution at position 4” value at CB1 receptor (compared to the p-pentylphenyl analog with 4-methyl) is listed as 12 fold. For the same molecule, in the experiment with mice [7] (at 10 mg/kg i.v.), the “% MPE: maximum % antagonism of 3 mg/kg Δ^9-THC” value is on record as 62% (10).

Consider `CCCCCc1cc(O)c2c(c1)OC(C)(C)[C@@H]1CCC(C)=C[C@@H]21` [Δ^9-THC, Δ^9-tetrahydrocannabinol], for which, in the experiment with mice [8], the “SA (suppression of spontaneous activity) ED50” value is 0.92 µmol/kg. Besides, the “RT (rectal temperature) ED50” value in the experiment with mice [9] is 2.5 µmol/kg. The “TF (tail flick, % MPE) ED50” value in the experiment on mice [10] is 2.7 µmol/kg.

On to “N-(N-Piperdyl)-3-(2,4-dichlrophenyl)-4-(4′-(1′-methylpentyl)phenyl)-5-methylpyrazole carboxamide [Compound O-1690]”, for which the “RT: > dose, 50% activity not achieved at this highest dose tested” value in the experiment with mice [1] (i.v.) is given as more than 30 mg/kg. Moreover, the “TF: > dose, 50% activity not achieved at this highest dose tested” value in the experiment on mice [3] (i.v.) was more than 30 mg/kg. Also, the “Max % inhibit of spontaneous locomotor activity, Compound Alone” value in the experiment with mice [4] (at 10 mg/kg i.v.) is given as 24% (10). In addition, in the experiment on mice [4] (at 30 mg/kg i.v.), the “Max stim of spontaneous locomotor activity, Compound Alone” value is reported as 18% (30). The “SA: > dose, 50% activity not achieved at this highest dose tested” value with mice [4] (mice, i.v.) was more than 30 mg/kg. Besides, the “Max % inhibit of spontaneous locomotor activity, Compound with 3 mg/kg Δ^9-THC” value with mice [5] (at 0.3 mg/kg i.v.) is on record as 88% (0.3). The “SA: maximum % antagonism of 3 mg/kg Δ^9-THC” value in the experiment with mice [5] (at 1 mg/kg i.v.) was 65% (1). Moreover, in the experiment with mice [5] (at 10 mg/kg i.v.), the “Max stim of spontaneous locomotor activity, Compound with 3 mg/kg Δ^9-THC” value is 39% (10). The “antagonist potency, fold increase for hypothermia” value in the experiment with mice [6] (compared to O-1302) is recorded as “approximately 3 fold”. Also, the Ki on CB1 receptor (read-out: Ki) is 2.6 ± 0.13 nM. Also, the “antagonist potency, fold increase for antinociception” value in the experiment with mice [7] (compared to O-1302) is given as “approximately 3 fold”.
